Reference: patent US20240002379A1, “ASYMMETRIC CONJUGATE COMPOUNDS” (Pheon Therapeutics Ltd., priority 2016, published 2024)

How the values were obtained:
[1] = tested on: three fluorescently labelled DNA sequences shown in FIG. 17; test: FRET DNA melting, the three DNA sequences shown in FIG. 17 together; format: binding; conditions: different concentrations, all three sequences, vs control DNA
From the text: (§1) Further FRET DNA melting studies were undertaken on a number of molecules using three fluorescently labelled sequences. The sequences (FIG. 17) were designed to provide additional evidence that the series can form inter- and intrastrand cross-links. Inosines were inserted in place of traditional DNA bases in some cases to limit the number of binding sites available for the compounds to interact with. The short duplexes used in this FRET study are relatively unstable in the duplex form with a melting temperature below 30° C. so that, in the absence of ligand, a large part of the melting occurs below the starting temperature of the experiment. […] Increasing concentrations of 13 cause a greater amount of the melting transition to appear at the higher temperature (i.e. a greater number of the DNA molecules are cross-linked). A greater effect for 5′-AIIAGAITTTI′-3′ can be observed at lower concentrations of 13.
(§2) Oligonucleotides were obtained from ATDbio (Southampton, UK) in lyophilised form. They were labelled with a fluorophore molecule (F=fluorescein) at the 5′-end and a quencher molecule (Q=dabcyl) at the 3′-end of the complementary strand. Each oligonucleotide was dissolved in distilled H2O to form stock solutions of 100 PM. Working solutions of 5 μM were prepared by diluting the stock solution with distilled H2O.
The following buffers were used: 250 mM phosphate buffer pH 7.4 (consisting of sodium dihydrogen phosphate and sodium phosphate diluted in distilled H2O) and 5 M sodium chloride buffer. A11 buffers and distilled H2O were filtered through a […] filter prior to use.
For the FRET experiments a stock solutions were prepared by dissolving compound (such as compound 13) in DMSO to give a concentration of 10 mM. From this stock solution, working solutions of the desired concentration were prepared by diluting the stock solution with distilled H2O.
The reaction mixture was comprised of 4 μL of 250 mM phosphate buffer (final concentration of 50 mM), 4 μL flourophor and 4 μL quencher molecule of the appropriate oligonucleotide for a final concentration of 0.2 PM, 4 μL 5 M sodium chloride (final concentration of 1 M NaCl), and 4 μL of distilled H2O. This mixture was heated in an Eppendorf tube at 90° C. for 1 min and slowly cooled down to room temperature. This process was carried out to anneal the single strands to double-stranded DNA. Following this, 4 μL of the ligand was added in the desired concentration and the mixture incubated overnight either at room temperature or 4° C. A control sample of DNA only was prepared by mixing 4 μL 250 mM phosphate buffer (final concentration of 50 mM) with 4 μL fluorophore-labelled and 4 μL quencher-labelled oligonucleotides (of the appropriate sequence) to give a final concentration of 0.2 PM, 4 μL 5 M sodium chloride (final concentration of 1 M NaCl) and 4 μL distilled H2O. This mixture was analysed without prior annealing.
Fluorescence melting profiles were measured using a Roche LightCycler using a total reaction volume of 20 μL. Initially, the samples were denatured by heating to 95° C. at a rate of 1° C. min^−1. The samples were then maintained at 95° C. for 5 min before annealing by cooling to 25° C. at 1° C. min^−1. The samples were then held at 25° C. for a further 5 min and finally melted by heating to 95° C. at 1° C. min^−1. Annealing steps and melting steps were all recorded and changes in fluorescence were measured at 520 nm.
Tm values were obtained from the first derivates of the melting profiles using the Roche LightCycler software.

[2] = tested on: fluorescently labelled DNA duplex 5′-[…]-3′; test: FRET DNA melting, FIG. 17 top sequence; format: binding; conditions: suggests interstrand cross-link formation
From the text: as §1, with “A greater effect for 5′-AIIAGAITTTI′-3′ can be observed at lower concentrations of 13.” left out
(§3) The reaction mixture was comprised of 4 μL of 250 mM phosphate buffer (final concentration of 50 mM), 4 μL flourophor and 4 μL quencher molecule of the appropriate oligonucleotide for a final concentration of 0.2 PM, 4 μL 5 M sodium chloride (final concentration of 1 M NaCl), and 4 μL of distilled H2O. […] This mixture was analysed without prior annealing.
(§4) Fluorescence melting profiles were measured using a Roche LightCycler using a total reaction volume of 20 μL. […] Annealing steps and melting steps were all recorded and changes in fluorescence were measured at 520 nm. […]

[3] = tested on: fluorescently labelled DNA duplex 5′-[…]-3′; test: FRET DNA melting, FIG. 13 top duplex (interstrand); format: binding
From the text: FRET DNA melting studies were undertaken on 13 using two fluorescently labelled sequences. The sequences (FIG. 13) were designed to provide additional evidence that 13 can form inter- and intrastrand cross-links. Inosines were inserted in place of traditional DNA bases to limit the number of binding sites available for 13 to interact with.
as §2, with “H2O. […]” for “H2O.”
as §3, §4

[4] = tested on: SW620 cell line (gastric); test: MTT cytotoxicity assay, SW620; format: cell-based; conditions: Homo sapiens, SW-620; MTT assay, 72 hour incubation; read-out: Cytotoxicity SW620 (72 hours)
Summary of the method: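 Cells seeded at 1800/well in RPMI1640 + 10% FBS, adhered overnight, then exposed to compound 72 h at 37° C. Survival by MTT (500 μg/ml, 4 h), formazan in DMSO read at 540 nm, blank-corrected versus untreated wells; IC50 read from concentration–survival plot.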

Q: For COc1cc2c(cc1OCc1cccc(CC(=O)N3C[C@@H](CCl)c4c3cc(O)c3ccccc43)c1)N=C[C@@H]1CCCCN1C2=O [Compound 42, (S)-3-((3-(2-((S)-1-(Chloromethyl)-5-hydroxy-1,2-dihydro-3H-benzo[e]indol-3-yl)-2-oxoethyl)benzyl)oxy)-2-methoxy-7,8,9,10-tetrahydrobenzo[e]pyrido[1,2-a][1,4]diazepin-12(6aH)-one], which “effect on melting temperature / DNA stabilisation” value [1] is on record?
A: increases significantly

Q: What about the Tm value [2] of the same molecule?
A: ~80 °C

Q: COc1cc2c(cc1OCCCC(=O)N1C[C@@H](CCl)c3c1cc(O)c1ccccc31)N=C[C@@H]1CCCCN1C2=O [Compound 13, (S)-3-(4-((S)-1-(Chloromethyl)-5-hydroxy-1,2-dihydro-3H-benzo[e]indol-3-yl)-4-oxobutoxy)-2-methoxy-7,8,9,10-tetrahydrobenzo[e]-pyrido[1,2-a][1,4]diazepin-12(6aH)-one] was tested. Which “change of melting temperature with compound concentration” value ([3]; FIG. 14 top panel) did it give?
A: increases significantly

Q: And the Tm value ([3]; duplex alone melts below 30° C., suggests interstrand cross-link)?
A: ~65 °C

Q: What about the IC50 [4] of the same molecule?
A: 0.42 nM
